The subject of the test is NO production. The experiment in a line: nitric oxide. Format: cell-based. The conditions noted are these: read-out: NO production inhibition IC50.

In general, IC50 refers to the concentration that gives 50% inhibition. As for `COc1ccc2c(c1)c(CC(=O)O)c(C)n2C(=O)c1ccc(Cl)cc1` [Indomethacin], the IC50 turned out to be 32.2 µM.
